According to ChEMBL document CHEMBL5696439 (Cancer Res, 2010):
Active and inactive are the calls of the source. The calls are words filed in the database; no cut-off is given here.

Columns and labels:
[1] = test system: A549; assay: Antiproliferative activity against human A549 cells assessed as cell growth inhibition at 10 micromol/L incubated for 3 days by MTS assay relative to control; type: functional; details: A549, 72 h, dose 10 µmol/L, time 3 day
[2] = target: Tyrosine-protein kinase Fer (Homo sapiens) (UniProt P16591); assay: Inhibition of recombinant human His-tagged FER (541-822 residues) expressed in baculovirus expression system at 2 uM using Tyr 05 as substrate measured after 1 hr by Z'-LYTE assay relative to control
[3] = target: Casein kinase I isoform gamma-1 (Homo sapiens) (UniProt Q9HCP0); assay: Inhibition of recombinant human full-length GST-tagged CSNK1G1 expressed in insect cells at 2 uM using Ser/Thr 05 as substrate measured after 1 hr by Z'-LYTE assay relative to control; details: Insect cell
[4] = target: Mitogen-activated protein kinase 8 (Homo sapiens) (UniProt P45983); assay: Inhibition of recombinant human full length His-tagged MAPK8 expressed in insect cells at 2 uM using Ser/Thr 04 as substrate measured after 1 hr by Z'-LYTE assay relative to control; details: Insect cell
[5] = target: Proto-oncogene tyrosine-protein kinase Src (Homo sapiens) (UniProt P12931); assay: Inhibition of recombinant human full length SRC N1 expressed in baculovirus expression system at 2 uM using Tyr 02 as substrate measured after 1 hr by Z'-LYTE assay relative to control
[6] = test system: U-87 MG; assay: Antitumor activity against human U-87MG cells assessed as reduction in HIF-1alpha level at 0.025 to 2 micromol/L incubated for 6 hrs by immunoblot analysis; type: functional, cell-based; details: U-87MG ATCC, dose 0.025-2 µmol/L
[7] = target: Tyrosine-protein kinase Lyn (Homo sapiens) (UniProt P07948); assay: Inhibition of recombinant human full length GST-tagged LYN A expressed in baculovirus expression system at 2 uM using Tyr 02 as substrate measured after 1 hr by Z'-LYTE assay relative to control
[8] = target: Platelet-derived growth factor receptor beta (Homo sapiens) (UniProt P09619); assay: Inhibition of recombinant human His-tagged PDGFRB (558-1106 residues) expressed in baculovirus expression system at 2 uM using Tyr 04 as substrate measured after 1 hr by Z'-LYTE assay relative to control
[9] = test system: A549; assay: Antitumor activity against human A549 cells xenografted in female nude mouse model assessed as inhibition in tumor growth at 10 to 50 mg/kg, po qd administered as 5 days on/2 days off regimen for 4 cycles; type: functional, organism-based; details: dose 10-50 mg/kg, time 28.0 day
[10] = target: Fibroblast growth factor receptor 2 (Homo sapiens) (UniProt P21802); assay: Inhibition of recombinant human His-tagged FGFR2 (403-822 residues) expressed in baculovirus expression system at 2 uM using Tyr 04 as substrate measured after 1 hr by Z'-LYTE assay relative to control
[11] = target: Mitogen-activated protein kinase 12 (Homo sapiens) (UniProt P53778); assay: Inhibition of recombinant human full length His-tagged MAPK12 expressed in baculovirus expression system at 2 uM using Ser/Thr 03 as substrate measured after 1 hr by Z'-LYTE assay relative to control
[12] = target: MAP kinase-activated protein kinase 5 (Homo sapiens) (UniProt Q8IW41); assay: Inhibition of recombinant human full length His-tagged MAPKAPK5 expressed in baculovirus expression system at 2 uM using Ser/Thr 04 as substrate measured after 1 hr by Z'-LYTE assay relative to control
[13] = test system: Proto-oncogene tyrosine-protein kinase receptor Ret (Homo sapiens), P07949 [Y791F]; assay: Inhibition of recombinant human GST-tagged RET Y791F mutant (658-1114 residues) expressed in baculovirus expression system at 2 uM using Tyr 02 as substrate measured after 1 hr by Z'-LYTE assay relative to control
[14] = target: Cyclin-dependent kinase 5/CDK5 activator 1 (Homo sapiens) (UniProt Q00535+Q15078); assay: Inhibition of recombinant human full-length GST/His-tagged CDK5/p35 expressed in insect cells at 2 uM using Ser/Thr 12 as substrate measured after 1 hr by Z'-LYTE assay relative to control; details: Insect cell
[15] = target: Dual specificity tyrosine-phosphorylation-regulated kinase 1B (Homo sapiens) (UniProt Q9Y463); assay: Inhibition of recombinant human full-length GST-tagged DYRK1B expressed in insect cells at 2 uM using Ser/Thr 18 as substrate measured after 1 hr by Z'-LYTE assay relative to control; details: Insect cell
[16] = target: Serine/threonine-protein kinase SMG1 (Homo sapiens, UniProt Q96Q15); assay: Inhibition of human SMG1 using glutathione S-transferase-p53 as substrate by DELFIA
[17] = target: Receptor tyrosine-protein kinase erbB-4 (Homo sapiens) (UniProt Q15303); assay: Inhibition of recombinant human GST-tagged ERBB4 (708-993 residues) expressed in insect cells at 2 uM using Tyr 01 as substrate measured after 1 hr by Z'-LYTE assay relative to control; details: Insect cell
[18] = test system: A549; assay: Induction of apoptosis in human A549 cells assessed as increase in G1 phase at 1 micromol/L incubated for 24 hrs by FACS analysis; type: functional, cell-based; details: dose 1.0 µmol/L
[19] = target: Mitogen-activated protein kinase 11 (Homo sapiens) (UniProt Q15759); assay: Inhibition of recombinant human full length His-tagged MAPK11 expressed in insect cells at 2 uM using Ser/Thr 15 as substrate measured after 1 hr by Z'-LYTE assay relative to control; details: Insect cell
[20] = target: Tyrosine-protein kinase Yes (Homo sapiens) (UniProt P07947); assay: Inhibition of recombinant human full length GST-tagged YES1 expressed in insect cells at 2 uM using Ser/Thr 07 as substrate measured after 1 hr by Z'-LYTE assay relative to control; details: Insect cell
[21] = target: Calcium/calmodulin-dependent protein kinase type 1D (Homo sapiens) (UniProt Q8IU85); assay: Inhibition of recombinant human full-length His-tagged CAMK1D expressed in insect cells at 2 uM using Ser/Thr 25 as substrate measured after 1 hr by Z'-LYTE assay relative to control; details: Insect cell
[22] = test system: LNCaP; assay: Antiproliferative activity against human LNCaP cells assessed as cell growth inhibition at 10 micromol/L incubated for 3 days by MTS assay relative to control; type: functional; details: 72 h, dose 10 µmol/L, time 3 day
[23] = test system: MDA-MB-361; assay: Inhibition of protein synthesis in human MDA-MB-361 cells at 3 micromol/L incubated for 3 hrs by [3H] methionine incorporation based scintillation counter analysis relative to control; type: functional; details: MDA-MB-361, 3 h, dose 3 µmol/L
[24] = target: G protein-coupled receptor kinase 3 (Homo sapiens) (UniProt P35626); assay: Inhibition of recombinant human full-length GST-tagged ADRBK2 expressed in insect cells at 2 uM using Ser/Thr 16 as substrate measured after 1 hr by Z'-LYTE assay relative to control; details: Insect cell
[25] = target: Protein kinase C epsilon type (Homo sapiens) (UniProt Q02156); assay: Inhibition of recombinant human full length GST-tagged PRKCE expressed in insect cells at 2 uM using Ser/Thr 07 as substrate measured after 1 hr by Z'-LYTE assay relative to control; details: Insect cell
Sequence of Protein kinase C epsilon type (Homo sapiens) (Q02156 whole entry): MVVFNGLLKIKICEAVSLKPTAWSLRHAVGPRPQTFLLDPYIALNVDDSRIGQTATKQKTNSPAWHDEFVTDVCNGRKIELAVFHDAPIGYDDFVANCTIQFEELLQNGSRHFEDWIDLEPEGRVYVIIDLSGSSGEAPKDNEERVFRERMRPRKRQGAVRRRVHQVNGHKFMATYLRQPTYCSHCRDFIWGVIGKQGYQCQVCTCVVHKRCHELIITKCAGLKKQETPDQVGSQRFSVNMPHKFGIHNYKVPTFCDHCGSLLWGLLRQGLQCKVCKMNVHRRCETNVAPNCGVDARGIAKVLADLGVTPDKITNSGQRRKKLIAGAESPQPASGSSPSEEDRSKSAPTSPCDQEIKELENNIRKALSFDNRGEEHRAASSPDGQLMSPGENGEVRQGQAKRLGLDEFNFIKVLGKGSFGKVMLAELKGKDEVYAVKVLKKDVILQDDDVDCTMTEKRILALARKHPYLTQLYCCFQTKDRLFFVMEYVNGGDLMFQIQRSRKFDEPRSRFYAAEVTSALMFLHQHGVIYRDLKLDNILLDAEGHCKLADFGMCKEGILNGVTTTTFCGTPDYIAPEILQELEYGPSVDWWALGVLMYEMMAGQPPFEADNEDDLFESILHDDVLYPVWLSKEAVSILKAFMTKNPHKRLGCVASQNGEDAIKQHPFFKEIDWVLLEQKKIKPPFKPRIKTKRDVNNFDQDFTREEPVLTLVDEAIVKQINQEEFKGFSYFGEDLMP

Sequence of Tyrosine-protein kinase Yes (Homo sapiens) (P07947 2-543 limits assumed): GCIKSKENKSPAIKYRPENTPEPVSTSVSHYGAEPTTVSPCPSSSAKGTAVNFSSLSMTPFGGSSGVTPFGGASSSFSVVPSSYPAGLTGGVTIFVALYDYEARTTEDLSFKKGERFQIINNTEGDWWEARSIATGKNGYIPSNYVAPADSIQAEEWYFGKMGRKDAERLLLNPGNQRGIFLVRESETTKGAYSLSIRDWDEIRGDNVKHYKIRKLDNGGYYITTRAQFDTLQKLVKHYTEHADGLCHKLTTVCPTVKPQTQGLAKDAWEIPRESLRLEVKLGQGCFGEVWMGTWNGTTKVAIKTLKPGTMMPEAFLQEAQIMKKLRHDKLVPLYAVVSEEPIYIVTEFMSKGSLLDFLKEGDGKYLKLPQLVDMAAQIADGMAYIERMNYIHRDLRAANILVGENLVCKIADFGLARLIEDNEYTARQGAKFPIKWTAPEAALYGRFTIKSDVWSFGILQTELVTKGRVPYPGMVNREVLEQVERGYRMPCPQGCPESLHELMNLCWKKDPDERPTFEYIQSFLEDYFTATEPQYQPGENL
Sequence of Tyrosine-protein kinase Fer (Homo sapiens) (P16591 whole entry, looked up, the tested form may be a part, canonical isoform): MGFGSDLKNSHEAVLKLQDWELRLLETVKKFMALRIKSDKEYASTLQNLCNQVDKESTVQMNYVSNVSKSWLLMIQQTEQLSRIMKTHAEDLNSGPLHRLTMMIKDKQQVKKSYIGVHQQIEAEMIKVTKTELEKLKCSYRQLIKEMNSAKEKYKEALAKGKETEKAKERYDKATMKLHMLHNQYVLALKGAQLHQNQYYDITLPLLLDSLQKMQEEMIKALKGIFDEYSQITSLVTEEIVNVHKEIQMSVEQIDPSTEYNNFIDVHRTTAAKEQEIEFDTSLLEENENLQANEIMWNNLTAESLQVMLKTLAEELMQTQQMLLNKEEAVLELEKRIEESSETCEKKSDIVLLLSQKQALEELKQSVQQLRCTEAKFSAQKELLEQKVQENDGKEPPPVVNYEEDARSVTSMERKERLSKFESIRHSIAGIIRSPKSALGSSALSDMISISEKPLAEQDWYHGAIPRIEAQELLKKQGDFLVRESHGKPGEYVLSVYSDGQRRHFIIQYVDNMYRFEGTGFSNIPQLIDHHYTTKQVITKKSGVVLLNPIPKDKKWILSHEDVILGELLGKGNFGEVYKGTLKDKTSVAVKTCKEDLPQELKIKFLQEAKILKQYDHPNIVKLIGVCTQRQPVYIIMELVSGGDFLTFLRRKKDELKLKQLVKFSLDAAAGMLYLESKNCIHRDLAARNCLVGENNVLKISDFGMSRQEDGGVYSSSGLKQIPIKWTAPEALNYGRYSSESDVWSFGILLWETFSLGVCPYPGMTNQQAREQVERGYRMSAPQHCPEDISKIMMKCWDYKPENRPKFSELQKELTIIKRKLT
Sequence of Casein kinase I isoform gamma-1 (Homo sapiens) (Q9HCP0 whole entry, looked up, canonical isoform): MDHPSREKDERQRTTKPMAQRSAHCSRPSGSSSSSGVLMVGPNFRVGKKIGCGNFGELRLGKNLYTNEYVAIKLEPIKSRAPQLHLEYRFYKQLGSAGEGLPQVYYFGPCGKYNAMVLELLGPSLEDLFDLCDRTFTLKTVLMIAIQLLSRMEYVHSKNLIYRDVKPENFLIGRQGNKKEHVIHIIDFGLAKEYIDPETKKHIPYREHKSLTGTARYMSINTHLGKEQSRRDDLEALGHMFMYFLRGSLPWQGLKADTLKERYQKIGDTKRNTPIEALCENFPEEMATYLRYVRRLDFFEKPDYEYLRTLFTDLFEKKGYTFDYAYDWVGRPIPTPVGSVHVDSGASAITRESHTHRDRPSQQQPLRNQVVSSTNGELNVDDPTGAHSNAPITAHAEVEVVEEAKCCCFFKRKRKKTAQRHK
Sequence of Fibroblast growth factor receptor 2 (Homo sapiens) (P21802 22-821 limits assumed): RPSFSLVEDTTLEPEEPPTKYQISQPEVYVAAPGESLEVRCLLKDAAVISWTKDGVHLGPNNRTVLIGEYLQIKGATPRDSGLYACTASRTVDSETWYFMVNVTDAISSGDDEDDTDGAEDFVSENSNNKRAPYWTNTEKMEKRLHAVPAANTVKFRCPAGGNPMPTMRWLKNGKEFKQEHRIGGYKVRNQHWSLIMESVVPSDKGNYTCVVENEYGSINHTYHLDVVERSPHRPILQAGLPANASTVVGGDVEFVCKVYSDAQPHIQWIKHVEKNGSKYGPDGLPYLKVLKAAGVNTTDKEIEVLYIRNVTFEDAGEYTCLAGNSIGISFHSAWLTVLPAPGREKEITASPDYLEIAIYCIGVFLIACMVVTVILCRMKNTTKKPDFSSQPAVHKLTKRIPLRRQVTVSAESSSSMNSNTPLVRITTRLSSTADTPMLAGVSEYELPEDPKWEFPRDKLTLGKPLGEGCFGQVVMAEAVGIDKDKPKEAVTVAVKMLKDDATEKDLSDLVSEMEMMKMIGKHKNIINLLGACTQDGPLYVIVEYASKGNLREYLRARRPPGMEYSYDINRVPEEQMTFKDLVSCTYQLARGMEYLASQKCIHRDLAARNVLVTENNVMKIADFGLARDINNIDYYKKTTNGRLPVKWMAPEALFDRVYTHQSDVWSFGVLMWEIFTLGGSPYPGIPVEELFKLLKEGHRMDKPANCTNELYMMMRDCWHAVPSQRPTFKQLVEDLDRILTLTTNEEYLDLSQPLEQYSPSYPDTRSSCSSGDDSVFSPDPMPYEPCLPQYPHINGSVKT
Sequence of Calcium/calmodulin-dependent protein kinase type 1D (Homo sapiens) (Q8IU85 whole entry, looked up): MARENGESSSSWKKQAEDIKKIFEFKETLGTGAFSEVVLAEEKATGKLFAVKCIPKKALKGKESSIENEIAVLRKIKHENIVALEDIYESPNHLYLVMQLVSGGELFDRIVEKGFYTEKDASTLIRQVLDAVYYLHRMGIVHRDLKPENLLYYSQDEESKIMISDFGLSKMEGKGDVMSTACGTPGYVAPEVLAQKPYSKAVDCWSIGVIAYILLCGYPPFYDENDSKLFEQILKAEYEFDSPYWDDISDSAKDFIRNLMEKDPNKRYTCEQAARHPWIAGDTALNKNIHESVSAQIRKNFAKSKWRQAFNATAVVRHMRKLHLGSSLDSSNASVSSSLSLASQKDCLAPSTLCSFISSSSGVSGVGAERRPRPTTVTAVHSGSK
Sequence of MAP kinase-activated protein kinase 5 (Homo sapiens) (Q8IW41 whole entry, the tested form may be a part): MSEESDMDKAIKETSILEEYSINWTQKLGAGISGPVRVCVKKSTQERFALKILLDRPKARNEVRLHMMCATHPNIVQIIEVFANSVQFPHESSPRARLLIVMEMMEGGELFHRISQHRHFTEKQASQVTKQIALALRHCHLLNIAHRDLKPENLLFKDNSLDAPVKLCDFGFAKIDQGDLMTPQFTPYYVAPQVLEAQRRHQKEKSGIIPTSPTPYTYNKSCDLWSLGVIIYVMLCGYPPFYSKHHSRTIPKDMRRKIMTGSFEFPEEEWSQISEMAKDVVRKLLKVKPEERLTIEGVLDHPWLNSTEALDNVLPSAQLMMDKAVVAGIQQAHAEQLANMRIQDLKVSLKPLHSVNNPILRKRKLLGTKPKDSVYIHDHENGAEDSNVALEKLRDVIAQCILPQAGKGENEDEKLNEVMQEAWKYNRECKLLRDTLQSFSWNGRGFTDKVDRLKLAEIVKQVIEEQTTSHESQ
Sequence of Mitogen-activated protein kinase 11 (Homo sapiens) (Q15759 whole entry): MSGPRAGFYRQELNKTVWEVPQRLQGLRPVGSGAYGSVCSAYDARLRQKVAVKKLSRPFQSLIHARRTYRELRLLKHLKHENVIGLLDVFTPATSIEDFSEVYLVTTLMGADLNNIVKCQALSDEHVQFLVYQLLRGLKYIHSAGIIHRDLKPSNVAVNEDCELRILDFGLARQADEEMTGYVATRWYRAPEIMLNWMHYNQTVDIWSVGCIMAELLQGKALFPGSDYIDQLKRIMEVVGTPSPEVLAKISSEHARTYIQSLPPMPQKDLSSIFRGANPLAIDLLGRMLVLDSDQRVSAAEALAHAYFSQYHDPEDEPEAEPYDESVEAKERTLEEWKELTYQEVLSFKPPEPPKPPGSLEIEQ
Sequence of Mitogen-activated protein kinase 8 (Homo sapiens) (P45983 whole entry): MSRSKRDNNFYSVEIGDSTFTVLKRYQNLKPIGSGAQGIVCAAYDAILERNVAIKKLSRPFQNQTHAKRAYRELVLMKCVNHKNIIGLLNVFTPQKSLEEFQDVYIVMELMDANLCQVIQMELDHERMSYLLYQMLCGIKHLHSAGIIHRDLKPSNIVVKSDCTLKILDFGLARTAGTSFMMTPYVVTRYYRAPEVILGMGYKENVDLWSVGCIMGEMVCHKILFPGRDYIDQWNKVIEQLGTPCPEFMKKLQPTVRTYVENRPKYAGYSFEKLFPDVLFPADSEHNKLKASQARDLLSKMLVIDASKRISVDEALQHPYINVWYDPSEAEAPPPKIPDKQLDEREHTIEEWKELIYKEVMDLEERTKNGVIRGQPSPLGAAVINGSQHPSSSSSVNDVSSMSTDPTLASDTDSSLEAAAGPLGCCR

For `CNC(=O)Nc1ccc(-c2nc(N3CC4CCC(C3)O4)c3cnn(C4CCC5(CC4)OCCO5)c3n2)cc1`, which inhibition at 10 µM [1] is on record?
The inhibition at 10 µM was 100%.

What about the inhibition [2] of the same molecule?
Its inhibition is 5%.

What about the inhibition [3] of the same molecule?
The inhibition was -2%.

And the inhibition [4]?
Its inhibition is 12%.

And the inhibition [5]?
Its inhibition is 7%.

What about the Activity [6] of the same molecule?
Its Activity is “Active”.

What about the inhibition [7] of the same molecule?
The inhibition was 7%.

And the inhibition [8]?
Its inhibition is 2%.

What about the inhibition [9] of the same molecule?
The inhibition was “Dose-Dependent Effect”.

And the inhibition [10]?
The inhibition was 4%.

And the inhibition [11]?
The inhibition was -2%.

What about the inhibition [12] of the same molecule?
Its inhibition is 5%.

What about the inhibition [13] of the same molecule?
The inhibition was 2%.

What about the inhibition [14] of the same molecule?
The inhibition was -4%.

And the inhibition [15]?
The inhibition was 2%.

What about the IC50 [16] of the same molecule?
The IC50 was 1250 nM.

And the inhibition [17]?
The inhibition was 3%.

What about the Activity [18] of the same molecule?
The Activity was “Active”.

And the inhibition [19]?
The inhibition was 2%.

What about the inhibition [20] of the same molecule?
The inhibition was 2%.

And the inhibition [21]?
Its inhibition is 0%.

What about the inhibition at 10 µM [22] of the same molecule?
Its inhibition at 10 µM is 100%.

What about the inhibition at 3 µM [23] of the same molecule?
The inhibition at 3 µM was ~50%.

And the inhibition [24]?
The inhibition was -3%.

What about the inhibition [25] of the same molecule?
The inhibition was 15%.
